# Patent US9115106B2, “Use of 5-hydroxy-2-hydroxymethyl-γ-pyrone (HMP) as a leishmanicidal agent” (UNIVERSIDADE FEDERAL DO PARA, priority 2008, dated 2015)
# “And” between values parts separate entries of the source, which are not always exact repeats. Identical values can stand only once.
# Columns and labels:
# rats = details: cited from earlier work
# [1] = tested on: host cells infected with L. amazonensis; experiment: Superoxide production, histochemical assay with Nitro Blue Tetrazolium (NBT); type: cell-based, murine; details: 50 μg/mL, compared with control cells
# Experimental: (§1) The peritoneal murine macrophage cells were cultured at 37° C. and 5% CO2 in Dulbecco's modified Eagle's medium (DMEM) supplemented with 10% heat-inactivated sterile filtered fetal bovine serum (FCS), 10 mM Hepes, pH 7.3, 100 U/mL penicillin and 100 µg/mL streptomycin (all from Gibco BRL/Life Technologies, Middlesex, UK). Cells were used after 24 hours of culture. Host cells were cultivated and infected or not with L. amazonensis, before treating or not with HMP at the same concentrations described previously.
# leukemia P388 = leukemia P388 in mice; cited from earlier work
# [2] = water, ethanol, or acetone; cited from earlier work
# [3] = tested on: L. amazonensis amastigotes in infected macrophages; experiment: Leishmanicidal activity on amastigotes during in vitro infection of macrophages; type: cell-based
# Experimental: as §1, with “culture. L. amazonensis promastigotes were obtained from the Evandro Chagas Institute in NNN medium and maintained at 26° C. in RPMI1640 medium.” for “culture.”
# [4] = tested on: peritoneal murine macrophage cells; experiment: Cellular viability by MTT and Neutral Red assays; type: cell-based; details: 10, 20 and 50 μg/mL HMP in DMEM
# Experimental: The peritoneal murine macrophage cells were cultured at 37° C. and 5% CO2 in Dulbecco's modified Eagle's medium (DMEM) supplemented with 10% heat-inactivated sterile filtered fetal bovine serum (FCS), 10 mM Hepes, pH 7.3, 100 U/mL penicillin and 100 µg/mL streptomycin (all from Gibco BRL/Life Technologies, Middlesex, UK). Cells were used after 24 hours of culture. […] Viability analyses performed by through Thiazolyl Blue (MTT) e Neutral Red (NR) assays.
# melasma = details: HMP added to trichloroacetic acid and glycolic acid mixture; cited from earlier work
# [5] = tested on: peritoneal murine macrophage cells; experiment: Morphological analysis of host cells by light, fluorescence and electron microscopy; type: cell-based; details: treated cells compared with control cells
# Experimental: The peritoneal murine macrophage cells were cultured at 37° C. and 5% CO2 in Dulbecco's modified Eagle's medium (DMEM) supplemented with 10% heat-inactivated sterile filtered fetal bovine serum (FCS), 10 mM Hepes, pH 7.3, 100 U/mL penicillin and 100 µg/mL streptomycin (all from Gibco BRL/Life Technologies, Middlesex, UK). Cells were used after 24 hours of culture. Firstly, morphological alterations were observed by light and fluorescence microscopy, as well as transmission and scanning electron microscopy in host cells, treated or not with 10, 20 and 50 μg/mL of HMP diluted in DMEM. Viability analyses performed by through Thiazolyl Blue (MTT) e Neutral Red (NR) assays.
# [6] = estimated; cited from earlier work
# [7] = ideal doses of consumption; no risk in doses of 0.03-0.06 mg/kg/day; cited from earlier work
# [8] = tested on: bacteria (bacilos, Salmonella); details: cited from earlier work
# thyroid = details: continued administration of high doses, rats; cited from earlier work
# [9] = tested on: bacteria from various genera; details: Aerobacter, Bacillus, Escherichia, Staphylococcus and other genera; cited from earlier work
# tyrosinases 1 and 2 = details: Schistosoma mansoni eggs; cited from earlier work
# Leishmania promastigotes = experiment: Leishmanicidal activity on promastigotes; type: cell-based, L. amazonensis; details: 50 μg/mL
compound,measurement,setting,value
"O=c1cc(CO)occ1O [HMP, 5-hydroxy-2-hydroxymethyl-γ-pyrone]",teratogenic effect,rats,did not cause any teratogenic effect
same,superoxide production (NBT),[1],greater superoxide production
same,antitumoural activity,leukemia P388,positive effects of antitumoural activity
same,solubility,[2],freely soluble
same,minimal concentration with leishmanicidal activity,[3]; activating host cell microbicidal response,50 µg/mL
same,reduction in amastigotes during in vitro infection,[3]; cells treated with 50 μg/mL,79%
same,effect on intracellular amastigote (ultrastructural observations),[3]; parasites inside the macrophages,causing morphological alterations and death
same,cytotoxic effect by MTT and NR assays,[4],not due to unspecific cytotoxic effect
same,effect on melasma treatment,melasma,improved treatment of melasma
same,host cell activation (morphology),[5],increase on actin filament polymerization and spreading
same,pKa,[6],7.90 and 8.03
same,toxic or genotoxic effects,[7],does not contain toxic or genotoxic effects
same,mutagenicity,[8],evidence in the literature regarding the mutagenicity of HMP in bacteria
same,thyroid tumour induction,thyroid,induction of thyroid adenomas
same,antibacterial activity,[9],inhibition of bacteria from various genera
same,inhibition of tyrosinase activity,tyrosinases 1 and 2,inhibit the activity of tyrosinases 1 and 2
same,inhibition at 50 µg/mL,Leishmania promastigotes,68%
